The values that follow come from patent publication US9410958B2, “Alkyne-activated fluorogenic azide compounds and methods of use thereof” (The Regents of the University of California, priority 2014, dated 2016).

The nature of series [1]: Photophysical properties and fluorescence quantum yields of Si-rhodamines in PBS pH 7.4. The format is physicochemical. As to conditions: for Φfl: cresyl violet in methanol as standard. The method, then: The fluorescence quantum yields of the purified amino, azido, and triazolyl Si-rhodamines were measured in pH 7.4 phosphate buffered saline (PBS) using cresyl violet in methanol (Φfl=0.54) as a standard (Table 1). […] The best candidate of the four, 8-azidonaphthyl-substituted Si-rhodamine 1, afforded only a 5-fold increase in fluorescence quantum yield as compared with the 29-fold enhancement observed with the corresponding fluorescein.
Fluorescence quantum yields were measured by creating 2 mM stocks of dyes in MeOH. The dyes were then diluted to 20 μM in PBS, then further diluted in PBS to various final concentrations. The absorbance and emission spectra of five different concentrations of dye were measured while keeping maximum absorbance under 0.2. Solutions of probe were excited at 600 nm, and emission was integrated from 600 to 800 nm. Plotting integrated emission vs. absorbance at 600 nm yielded a line, whose slope corresponds to the fluorescence quantum yield. Absolute quantum yields were determined by comparison with the slope of the line measured for cresyl violet in MeOH (Φfl=0.54). The reported quantum yields are the average of three sets of measurements. Absorbance spectra were recorded on a Varian Cary 50 UV-Visible spectrophotometer. Fluorescence spectra were recorded on a Photon Technology International Quanta Master 4 L-format scanning spectrofluorometer equipped with an LPS-220B 75-W xenon lamp and power supply, A-1010B lamp housing with an integrated igniter, switchable 814 photon counting/analog photomultiplier detection unit, and MD5020 motor driver. Measurements were made in 1 cm×0.4 cm quartz cuvettes with a total sample volume of 1 mL.

The test system of a further series is HEK 293T cells. As to the kind of experiment: No-wash live cell surface labeling and mitochondrial co-staining, HEK 293T. Particulars: HEK 293T.
A further series has as its system CHO K1 cells. As to the kind of experiment: No-wash cell surface labeling of SiaNAl residues, CHO K1. The format is cell-based. The method, then: Si-rhodamine 10 was evaluated as a reagent for imaging SiaNAl residues on live cell surfaces. CHO K1 cells were incubated with 50 μM Ac4ManNAl for 3 days, washed, and then incubated with 5 μM 10, 50 μM CuSO4, 300 μM BTTAA, and 1 mM sodium ascorbate. […] Cell-surface glycan labeling was visualized as it occurred in real time (FIG. 14). Background labeling was minimal on control cells treated with N-acetylmannosamine (Ac4ManNAc) (FIG. 13).

The conditions of series [2]: data from Shieh et al. 2014; cited from earlier work.
The mark [3] stands for this setting: decrease (↓), amine relative to the azide.
[4] abbreviates: increase (↑), triazole relative to the azide.

Molecules are shown by their SMILES. “Also recorded” adds a separate entry of the source. Where two headings read alike, the source gives them in different places. Marks after values point to notes of the source that are not given here.

Description for HEK 293T cells: Cells were grown in 8-well Lab-Tek Chambered Coverglass systems in media (HAM-F12 for CHO K1 cells, DMEM for HEK 293T cells) containing 10% fetal bovine serum, penicillin/streptomycin, and either 50 μM Ac4ManNAl or Ac4ManNAc for 3 d at 37° C., as described previously. The cells were then washed with 3×300 μL PBS, then incubated with 100 μL freshly prepared click solution. Click solution comprised of 50 μM CuSO4, 300 μM BTTAA, 2.5 mM sodium ascorbate, and 5 μM azido Si-rhodamine. This was prepared by first adding 0.5 μL 50 mM CuSO4 in H2O and 3 μL 50 mM BTTAA in H2O to 481.5 μL PBS. Next, 12.5 μL freshly prepared 100 mM sodium ascorbate in PBS was added. Finally, 2.5 μL 1 mM azido Si-rhodamine in 4:1 PBS/MeOH was added. After 15 min, the reactions were quenched with the addition of 1 μL of 100 mM bathocuproine disulfonate (BCS) in H2O (final concentration 1 mM). […] For real-time imaging, images were acquired as the labeling progressed without quenching the reaction.
HEK 293T cells were grown in a LabTek 8-well chambered glass slide in DMEM containing fetal bovine serum, penicillin/streptomycin for 3 d at 37° C. The cells were then incubated with 100 nM MitoTracker Green FM and 1 μg/mL Hoechst 33342 in fresh media for 30 min at 37° C., then media removed and the cells incubated with 100 μL PBS containing 5 μM 10. The cells were then directly imaged.
The CalFluors' performance in no-wash cell imaging experiments was evaluated. Using established methods, cell-surface glycoconjugates were metabolically labeled with peracetylated N-pentynoyl mannosamine (Ac4ManNAl), which introduces terminal alkyne groups into sialic acid residues (SiaNAl). HEK 293T cells treated in this fashion were then incubated, without fixation, with a cocktail containing 50 μM CuSO4, 300 μM BTTAA, 5 mM sodium ascorbate and 10 μM CalFluor dye.
Cells were grown with 50 μM Ac4ManNAl or Ac4ManNAc for 3 days, then subjected to click labeling with CalFluor probes. (A) Labeling glycoproteins on live cell surfaces. Cells were treated with 10 μM azide probe, 50 μM CuSO4, 300 μM BTTAA ligand, and 5 mM sodium ascorbate. The reaction was quenched with 1 mM BCS and the cells imaged without further wash steps. (B) Labeling glycoproteins on fixed cells. Cells were fixed with 3% paraformaldehyde, then treated with 10 μM CalFluor probe, 1 mM CuSO4, 100 μM TBTA ligand, and 2 mM sodium ascorbate. 0.1 mg/mL BSA was added to prevent the TBTA from precipitating over the course of the reaction.

As to `COc1cc(C)c(C2=C3C=CC(=[N+](C)C)C=C3[Si](C)(C)c3cc(N(C)C)ccc32)cc1N` [Compound 7-NH2], in series [1], the λabs worked out at 648 nm, the λem turned out to be 669 nm and the Φfl was 0.0015. In addition, in series [1] (setting [3]), the “Change in Φfl” value is 45-fold ↓.
In series [1], `COc1ccc(N)cc1C1=C2C=CC(=[N+](C)C)C=C2[Si](C)(C)c2cc(N(C)C)ccc21` [Compound 2-NH2] displayed a λabs of 650 nm, a λem of 669 nm and a Φfl of 0.0025. The “Change in Φfl” value in series [1] (setting [3]) is recorded as 32-fold ↓.
With `CN(C)c1ccc2c(c1)[Si](C)(C)C1=CC(=[N+](C)C)C=CC1=C2c1cc(N=[N+]=[N-])cc2c1OCCO2` [Compound 5-N3], in series [1], the λabs came out at 655 nm, the λem is listed as 668 nm and the Φfl worked out at 0.019.
`CN(C)c1ccc2c(c1)[Si](C)(C)C1=CC(=[N+](C)C)C=CC1=C2c1cc(N)cc2c1OCCO2` [Compound 5-NH2]: in series [1], the λabs came out at 653 nm, the λem amounted to 667 nm and the Φfl turned out to be 0.00093. For the same compound, the “Change in Φfl” value in series [1] (setting [3]) was 21-fold ↓.
In series [1], `COc1cc(C2=C3C=CC(=[N+](C)C)C=C3[Si](C)(C)c3cc(N(C)C)ccc32)c(OC)c(-n2cc(CCC(=O)NCCO)nn2)c1` [Compound 8-triazole] had a λabs of 657 nm, a λem of 671 nm and a Φfl of 0.16. Besides, the “Change in Φfl” value in series [1] (setting [4]) is 3.2-fold ↑.
In series [1], `CN(C)c1ccc2c(c1)[Si](C)(C)C1=CC(=[N+](C)C)C=CC1=C2c1cc(N)cc2[nH]ccc12` [Compound 4-NH2] showed a λabs of 650 nm, a λem of 673 nm and a Φfl of 0.00088. Also, in series [1] (setting [3]), the “Change in Φfl” value is given as 5.5-fold ↓.
`COCCOCCOCCOc1cc(OCCOCCOCCOC)c(C2=C3C=CC(=[N+](C)C)C=C3[Si](C)(C)c3cc(N(C)C)ccc32)cc1N=[N+]=[N-]` [Compound 10]: the “background, intracellular or mitochondrial labeling” value in the series with HEK 293T cells is on record as “mitochondrial staining; also recorded: punctate fluorescence appeared within the cells almost immediately”. Moreover, in the series with CHO K1 cells (Ac4ManNAl-treated CHO K1, no wash, 15 min), the cell-surface labeling result is reported as “robust cell-surface labeling”. Further, in the series with CHO K1 cells (CHO K1, control or unwanted labeling), the background labeling result is given as “minimal”.
For `COc1cc(-n2cc(CCC(=O)NCCO)nn2)cc(C2=C3C=CC(=[N+](C)C)C=C3[Si](C)(C)c3cc(N(C)C)ccc32)c1OC` [Compound 6-triazole], in series [1], the λabs was found to be 656 nm, the λem was found to be 670 nm and the Φfl came to 0.18. For the same compound, in series [1] (setting [4]), the “Change in Φfl” value is 4.6-fold ↑.
In the case of `CN(C)c1ccc2c(c1)[Si](C)(C)C1=CC(=[N+](C)C)C=CC1=C2c1cc(-n2cc(CCC(=O)NCCO)nn2)cc2[nH]ccc12` [Compound 4-triazole], in series [1], the λabs worked out at 654 nm, the λem worked out at 668 nm and the Φfl turned out to be 0.0088. Also, the “Change in Φfl” value in series [1] (setting [4]) was 1.8-fold ↑.
For `CN(C)c1ccc2c(c1)[Si](C)(C)C1=CC(=[N+](C)C)C=CC1=C2c1ccc(-n2cc(CCC(=O)NCCO)nn2)c2ccccc12` [Compound 1-triazole], in that order: 656 nm, 670 nm, 0.19 and 5.0-fold ↑.
In series [1], `CN(C)c1ccc2c(c1)[Si](C)(C)C1=CC(=[N+](C)C)C=CC1=C2c1cc(N=[N+]=[N-])cc2[nH]ccc12` [Compound 4-N3] displayed a λabs of 660 nm, a λem of 669 nm and a Φfl of 0.0048.
For `COc1ccc(N=[N+]=[N-])cc1C1=C2C=CC(=[N+](C)C)C=C2[Si](C)(C)c2cc(N(C)C)ccc21` [Compound 2-N3] the same measures were 653 nm, 667 nm and 0.081.
On to `CN(C)c1ccc2c(c1)[Si](C)(C)C1=CC(=[N+](C)C)C=CC1=C2c1cc(-n2cc(CCC(=O)NCCO)nn2)ccc1N1CCOCC1` [Compound 3-triazole], for which, in series [1], the λabs is 663 nm, the λem is recorded as 676 nm and the Φfl was determined as 0.0015. For the same compound, in series [1] (setting [4]), the “Change in Φfl” value is on record as 1.1-fold ↑.
In series [1], `CN(C)c1ccc2c(c1)[Si](C)(C)C1=CC(=[N+](C)C)C=CC1=C2c1cc(N)ccc1N1CCOCC1` [Compound 3-NH2] registered a λabs of 650 nm, a λem of 672 nm and a Φfl of 0.00096. Also, the “Change in Φfl” value in series [1] (setting [3]) was 1.4-fold ↓.
Regarding `COc1cc(C)c(C2=C3C=CC(=[N+](C)C)C=C3[Si](C)(C)c3cc(N(C)C)ccc32)cc1-n1cc(CCC(=O)NCCO)nn1` [Compound 7-triazole], in series [1], the λabs was found to be 652 nm, the λem came out at 666 nm and the Φfl turned out to be 0.25. Also, the “Change in Φfl” value in series [1] (setting [4]) is on record as 3.7-fold ↑.
In series [1], `COc1cc(OC)c(C2=C3C=CC(=[N+](C)C)C=C3[Si](C)(C)c3cc(N(C)C)ccc32)cc1N` [Compound 9-NH2] returned a λabs of 650 nm, a λem of 664 nm and a Φfl of 0.0014. For the same compound, the “Change in Φfl” value in series [1] (setting [3]) is reported as 3.0-fold ↓.
Regarding `COc1cc(N)cc(C2=C3C=CC(=[N+](C)C)C=C3[Si](C)(C)c3cc(N(C)C)ccc32)c1OC` [Compound 6-NH2], in series [1], the λabs stood at 652 nm, the λem is listed as 665 nm and the Φfl is on record as 0.00067. Also, the “Change in Φfl” value in series [1] (setting [3]) is given as 58-fold ↓.
Consider `COc1cc(OC)c(-n2cc(CCC(=O)NCCO)nn2)cc1C1=C2C=CC(=[N+](C)C)C=C2[Si](C)(C)c2cc(N(C)C)ccc21` [2 triazole], for which, in series [2], the Enhancement is on record as 48x^a, the Φfl is reported as 0.20^a, the λem was 668 nm^a and the λmax is listed as 665 nm^a.
In series [1], `COc1ccc(-n2cc(CCC(=O)NCCO)nn2)cc1C1=C2C=CC(=[N+](C)C)C=C2[Si](C)(C)c2cc(N(C)C)ccc21` [Compound 2-triazole] had a λabs of 655 nm, a λem of 669 nm and a Φfl of 0.19. For the same compound, the “Change in Φfl” value in series [1] (setting [4]) is 2.3-fold ↑.
Take `COc1cc(N=[N+]=[N-])c(OC)c(C2=C3C=CC(=[N+](C)C)C=C3[Si](C)(C)c3cc(N(C)C)ccc32)c1` [Compound 8-N3]: in series [1], the λabs turned out to be 655 nm, the λem was found to be 669 nm and the Φfl turned out to be 0.051.
For `COc1cc(C)c(C2=C3C=CC(=[N+](C)C)C=C3[Si](C)(C)c3cc(N(C)C)ccc32)cc1N=[N+]=[N-]` [Compound 7-N3], in series [1], the λabs was 650 nm, the λem is 666 nm and the Φfl is given as 0.066.
For the compound `CN(C)c1ccc2c(c1)[Si](C)(C)C1=CC(=[N+](C)C)C=CC1=C2c1ccc(N)c2ccccc12` [Compound 1-NH2], in series [1], the λabs is given as 653 nm, the λem was determined as 669 nm and the Φfl was 0.0016. The “Change in Φfl” value in series [1] (setting [3]) is recorded as 24-fold ↓.
For `CN(C)c1ccc2c(c1)[Si](C)(C)C1=CC(=[N+](C)C)C=CC1=C2c1cc(-n2cc(CCC(=O)NCCO)nn2)cc2c1OCCO2` [Compound 5-triazole], in series [1], the λabs came out at 656 nm, the λem is reported as 668 nm and the Φfl was determined as 0.18. Further, the “Change in Φfl” value in series [1] (setting [4]) is on record as 9.5-fold ↑.
In series [1], `CN(C)c1ccc2c(c1)[Si](C)(C)C1=CC(=[N+](C)C)C=CC1=C2c1cc(N=[N+]=[N-])ccc1N1CCOCC1` [Compound 3-N3] registered a λabs of 656 nm, a λem of 667 nm and a Φfl of 0.0014.
As for `COc1cc(N)c(OC)c(C2=C3C=CC(=[N+](C)C)C=C3[Si](C)(C)c3cc(N(C)C)ccc32)c1` [Compound 8-NH2], in series [1], the λabs is on record as 654 nm, the λem turned out to be 672 nm and the Φfl came to 0.0012. In series [1] (setting [3]), the “Change in Φfl” value is 41-fold ↓.
For `COc1cc(OC)c(-n2cc(CCC(=O)NCCO)nn2)cc1C1=C2C=CC(=[N+](C)C)C=C2[Si](C)(C)c2cc(N(C)C)ccc21` [Compound 9-triazole], in series [1], the λabs came out at 655 nm, the λem is 668 nm and the Φfl was 0.20. For the same compound, the “Change in Φfl” value in series [1] (setting [4]) is given as 48-fold ↑.
In series [1], `COc1cc(N=[N+]=[N-])cc(C2=C3C=CC(=[N+](C)C)C=C3[Si](C)(C)c3cc(N(C)C)ccc32)c1OC` [Compound 6-N3] gave a λabs of 654 nm, a λem of 669 nm and a Φfl of 0.039.
